In patent publication US10040790B2, “Bicyclic heterocycles as FGFR inhibitors” (Incyte Corporation, priority 2013, dated 2018):

What was measured:
Assay type in all cases: biochemical
[1] = target: FGFR1 (Homo sapiens (Human), UniProt P11362); test: FGFR Enzymatic Assay (FRET peptide phosphorylation), FGFR1; conditions: ATP 210 μM, enzyme 0.02 nM
Method: (§1) The inhibitor potency of the exemplified compounds was measured in an enzyme assay that measures peptide phosphorylation using FRET measurements to detect product formation. Inhibitors were serially diluted in DMSO and a volume of 0.5 μL was transferred to the wells of a 384-well plate. For FGFR3, a 10 μL volume of FGFR3 enzyme (Millipore) diluted in assay buffer (50 mM HEPES, 10 mM MgCl2, 1 mM EGTA, 0.01% Tween-20, 5 mM DTT, pH 7.5) was added to the plate and pre-incubated for 5-10 minutes. Appropriate controls (enzyme blank and enzyme with no inhibitor) were included on the plate. The assay was initiated by the addition of a 10 μL solution containing biotinylated EQEDEPEGDYFEWLE peptide substrate (SEQ ID NO: 1) and ATP (final concentrations of 500 nM and 140 μM respectively) in assay buffer to the wells. The plate was incubated at 25° C. for 1 hr. The reactions were ended with the addition of 10 μL/well of quench solution (50 mM Tris, 150 mM NaCl, 0.5 mg/mL BSA, pH 7.8; 30 mM EDTA with Perkin Elmer Lance Reagents at 3.75 nM Eu-antibody PY20 and 180 nM APC-Streptavidin). The plate was allowed to equilibrate for ˜1 hr before scanning the wells on a PheraStar plate reader (BMG Labtech).
(§2) FGFR1 and FGFR2 were measured under equivalent conditions with the following changes in enzyme and ATP concentrations: FGFR1, 0.02 nM and 210 μM, respectively and FGFR2, 0.01 nM and 100 μM, respectively. The enzymes were purchased from Millipore or Invitrogen.
(§3) GraphPad prism3 was used to analyze the data. The IC50 values were derived by fitting the data to the equation for a sigmoidal dose-response with a variable slope. Y=Bottom+(Top−Bottom)/(1+10^((Log IC50−X)*HillSlope)) where X is the logarithm of concentration and Y is the response.

[2] = target: FGFR2 (Homo sapiens (Human), UniProt P21802); test: FGFR Enzymatic Assay (FRET peptide phosphorylation), FGFR2; conditions: ATP 100 μM, enzyme 0.01 nM
Method: as §1, §2, §3

[3] = target: FGFR3 (Homo sapiens (Human), UniProt P22607); test: FGFR Enzymatic Assay (FRET peptide phosphorylation), FGFR3; conditions: ATP 140 μM
Method: as §1, §3

Measured: IC50

FGFR3, sequence (P22607 23-806): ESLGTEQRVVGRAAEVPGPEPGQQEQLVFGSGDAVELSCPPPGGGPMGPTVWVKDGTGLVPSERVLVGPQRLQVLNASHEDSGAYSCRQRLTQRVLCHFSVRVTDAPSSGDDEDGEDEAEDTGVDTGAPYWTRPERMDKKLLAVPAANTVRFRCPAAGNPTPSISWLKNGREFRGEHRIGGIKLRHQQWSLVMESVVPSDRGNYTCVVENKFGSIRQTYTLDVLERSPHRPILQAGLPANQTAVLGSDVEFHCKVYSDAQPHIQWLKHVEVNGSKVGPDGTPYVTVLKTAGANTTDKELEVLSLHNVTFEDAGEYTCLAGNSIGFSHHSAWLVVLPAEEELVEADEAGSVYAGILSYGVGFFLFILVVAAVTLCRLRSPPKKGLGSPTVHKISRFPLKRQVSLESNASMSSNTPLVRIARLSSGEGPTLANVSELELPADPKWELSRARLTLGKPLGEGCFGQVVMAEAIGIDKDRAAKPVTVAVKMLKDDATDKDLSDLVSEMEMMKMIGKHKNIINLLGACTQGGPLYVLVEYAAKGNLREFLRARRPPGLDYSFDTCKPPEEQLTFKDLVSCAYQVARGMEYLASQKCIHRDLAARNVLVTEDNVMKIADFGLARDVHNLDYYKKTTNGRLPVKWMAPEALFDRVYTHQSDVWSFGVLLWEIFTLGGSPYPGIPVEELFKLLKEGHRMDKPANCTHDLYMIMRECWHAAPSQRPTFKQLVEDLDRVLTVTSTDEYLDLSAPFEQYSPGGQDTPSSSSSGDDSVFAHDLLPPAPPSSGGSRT
FGFR1, sequence (P11362 22-822): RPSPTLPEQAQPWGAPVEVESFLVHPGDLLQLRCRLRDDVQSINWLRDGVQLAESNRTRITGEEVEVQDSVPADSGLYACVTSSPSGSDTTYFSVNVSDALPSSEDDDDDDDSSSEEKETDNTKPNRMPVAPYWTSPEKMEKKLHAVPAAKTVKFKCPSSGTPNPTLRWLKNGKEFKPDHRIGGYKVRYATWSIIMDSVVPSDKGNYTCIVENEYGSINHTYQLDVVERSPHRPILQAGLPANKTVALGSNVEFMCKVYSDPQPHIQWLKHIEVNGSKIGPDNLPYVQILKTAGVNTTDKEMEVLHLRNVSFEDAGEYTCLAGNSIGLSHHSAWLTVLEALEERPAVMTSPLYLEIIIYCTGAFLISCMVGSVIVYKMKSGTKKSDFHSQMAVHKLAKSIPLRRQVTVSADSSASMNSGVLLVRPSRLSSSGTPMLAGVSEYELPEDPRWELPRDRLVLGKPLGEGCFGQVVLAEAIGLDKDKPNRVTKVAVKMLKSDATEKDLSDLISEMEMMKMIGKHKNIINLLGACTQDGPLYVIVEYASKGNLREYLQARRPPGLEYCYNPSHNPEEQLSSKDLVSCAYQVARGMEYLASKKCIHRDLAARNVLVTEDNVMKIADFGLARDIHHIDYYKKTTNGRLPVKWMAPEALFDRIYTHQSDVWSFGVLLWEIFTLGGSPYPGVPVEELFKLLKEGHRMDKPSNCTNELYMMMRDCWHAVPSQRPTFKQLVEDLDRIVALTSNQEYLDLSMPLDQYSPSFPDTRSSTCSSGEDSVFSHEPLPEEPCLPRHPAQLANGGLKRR
FGFR2, sequence (P21802 22-821): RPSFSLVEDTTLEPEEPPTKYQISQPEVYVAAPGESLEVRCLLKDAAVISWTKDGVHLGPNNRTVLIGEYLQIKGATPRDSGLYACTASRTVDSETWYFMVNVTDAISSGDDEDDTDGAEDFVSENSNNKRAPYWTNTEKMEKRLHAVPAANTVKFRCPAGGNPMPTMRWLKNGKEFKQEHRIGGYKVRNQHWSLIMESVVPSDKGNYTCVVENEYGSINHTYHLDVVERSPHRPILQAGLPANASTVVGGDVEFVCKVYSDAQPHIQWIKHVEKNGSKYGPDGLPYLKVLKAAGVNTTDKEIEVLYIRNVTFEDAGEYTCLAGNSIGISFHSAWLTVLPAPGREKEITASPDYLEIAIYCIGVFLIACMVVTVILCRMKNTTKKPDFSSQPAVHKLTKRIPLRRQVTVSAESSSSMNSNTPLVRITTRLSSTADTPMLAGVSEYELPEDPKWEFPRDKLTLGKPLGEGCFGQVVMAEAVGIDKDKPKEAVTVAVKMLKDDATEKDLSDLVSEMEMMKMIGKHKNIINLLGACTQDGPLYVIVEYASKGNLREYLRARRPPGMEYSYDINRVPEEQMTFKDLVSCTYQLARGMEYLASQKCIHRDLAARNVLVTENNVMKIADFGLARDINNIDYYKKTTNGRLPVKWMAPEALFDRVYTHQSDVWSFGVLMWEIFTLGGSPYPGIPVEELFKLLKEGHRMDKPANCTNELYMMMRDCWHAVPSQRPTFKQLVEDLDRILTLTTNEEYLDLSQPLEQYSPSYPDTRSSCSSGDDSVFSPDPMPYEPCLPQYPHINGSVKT

COc1cc(OC)c(F)c(N2Cc3cnc(N)c(C)c3N(C)C2=O)c1F [Example 1, 7-amino-3-(2,6-difluoro-3,5-dimethoxyphenyl)-1,8-dimethyl-3,4-dihydropyrido[4,3-d]pyrimidin-2(1H)-one]
< 100 nM: all assays above

CCc1c(N)ncc2c1N(C)C(=O)N(c1c(F)c(OC)cc(OC)c1F)C2 [Example 2, 7-amino-3-(2,6-difluoro-3,5-dimethoxyphenyl)-8-ethyl-1-methyl-3,4-dihydropyrido[4,3-d]pyrimidin-2(1H)-one]
< 100 nM: all assays above

COc1cc(OC)c(F)c(N2Cc3cnc(N)c(C#N)c3N(C)C2=O)c1F [Example 3, 7-amino-3-(2,6-difluoro-3,5-dimethoxyphenyl)-1-methyl-2-oxo-1,2,3,4-tetrahydropyrido-[4,3-d]pyrimidine-8-carbonitrile]
< 100 nM: all assays above

CCOc1c(N)ncc2c1N(C)C(=O)N(c1c(F)c(OC)cc(OC)c1F)C2 [Example 4, 7-amino-3-(2,6-difluoro-3,5-dimethoxyphenyl)-8-ethoxy-1-methyl-3,4-dihydropyrido[4,3-d]pyrimidin-2(1H)-one]
< 100 nM: all assays above

COCCOc1c(N)ncc2c1N(C)C(=O)N(c1c(F)c(OC)cc(OC)c1F)C2 [Example 5, 7-amino-3-(2,6-difluoro-3,5-dimethoxyphenyl)-8-(2-methoxyethoxy)-1-methyl-3,4-dihydro-pyrido[4,3-d]pyrimidin-2(1H)-one]
< 100 nM: all assays above

COc1cc(OC)c(F)c(N2Cc3cnc(N)c(OCCN4CCN(C)CC4)c3N(C)C2=O)c1F [Example 6, 7-amino-3-(2,6-difluoro-3,5-dimethoxyphenyl)-1-methyl-8-[2-(4-methylpiperazin-1-yl)ethoxy]-3,4-dihydropyrido[4,3-d]pyrimidin-2(1H)-one]
< 100 nM: all assays above

COc1cc(OC)c(F)c(N2Cc3cnc(N)c(Oc4ccccc4)c3N(C)C2=O)c1F [Example 7, 7-amino-3-(2,6-difluoro-3,5-dimethoxyphenyl)-1-methyl-8-phenoxy-3,4-dihydropyrido[4,3-d]pyrimidin-2(1H)-one]
< 100 nM: all assays above

COc1cc(OC)c(F)c(N2Cc3cnc(N)c(-c4cnn(C)c4)c3N(C)C2=O)c1F [Example 8, 7-amino-3-(2,6-difluoro-3,5-dimethoxyphenyl)-1-methyl-8-(1-methyl-1H-pyrazol-4-yl)-3,4-dihydropyrido[4,3-d]pyrimidin-2(1H)-one]
< 100 nM: all assays above

CCn1cc(-c2c(N)ncc3c2N(C)C(=O)N(c2c(F)c(OC)cc(OC)c2F)C3)cn1 [Example 9, 7-amino-3-(2,6-difluoro-3,5-dimethoxyphenyl)-1-methyl-8-(1-ethyl-1H-pyrazol-4-yl)-3,4-dihydropyrido[4,3-d]pyrimidin-2(1H)-one]
< 100 nM: all assays above

COc1cc(OC)c(F)c(N2Cc3cnc(N)c(-c4cnn(CCO)c4)c3N(C)C2=O)c1F [Example 10, 7-amino-3-(2,6-difluoro-3,5-dimethoxyphenyl)-8-[1-(2-hydroxyethyl)-1H-pyrazol-4-yl]-1-methyl-3,4-dihydropyrido[4,3-d]pyrimidin-2(1H)-one]
< 100 nM: all assays above

COc1cc(OC)c(F)c(N2Cc3cnc(N)c(-c4cnn(C5CCNCC5)c4)c3N(C)C2=O)c1F [Example 11, 7-amino-3-(2,6-difluoro-3,5-dimethoxyphenyl)-1-methyl-8-(1-piperidin-4-yl-1H-pyrazol-4-yl)-3,4-dihydropyrido[4,3-d]pyrimidin-2(1H)-one]
< 100 nM: all assays above

COc1cc(OC)c(F)c(N2Cc3cnc(N)c(-c4cn[nH]c4)c3N(C)C2=O)c1F [Example 12, 7-amino-3-(2,6-difluoro-3,5-dimethoxyphenyl)-1-methyl-8-(1H-pyrazol-4-yl)-3,4-dihydro-pyrido[4,3-d]pyrimidin-2(1H)-one]
< 100 nM: all assays above

COc1cc(OC)c(F)c(N2Cc3cnc(N)c(-c4ccnn4C)c3N(C)C2=O)c1F [Example 13, 7-amino-3-(2,6-difluoro-3,5-dimethoxyphenyl)-1-methyl-8-(1-methyl-1H-pyrazol-5-yl)-3,4-dihydropyrido[4,3-d]pyrimidin-2(1H)-one]
< 100 nM: all assays above

COc1cc(OC)c(F)c(N2Cc3cnc(N)c(-c4ccccc4)c3N(C)C2=O)c1F [Example 14, 7-amino-3-(2,6-difluoro-3,5-dimethoxyphenyl)-1-methyl-8-phenyl-3,4-dihydropyrido[4,3-d]pyrimidin-2(1H)-one]
< 100 nM: all assays above

COc1cc(OC)c(F)c(N2Cc3cnc(N)c(-c4ccc(F)cc4)c3N(C)C2=O)c1F [Example 15, 7-amino-3-(2,6-difluoro-3,5-dimethoxyphenyl)-8-(4-fluorophenyl)-1-methyl-3,4-dihydro-pyrido[4,3-d]pyrimidin-2(1H)-one]
< 100 nM: all assays above

COc1cc(OC)c(F)c(N2Cc3cnc(N)c(-c4cccnc4)c3N(C)C2=O)c1F [Example 16, 7-amino-3-(2,6-difluoro-3,5-dimethoxyphenyl)-1-methyl-8-pyridin-3-yl-3,4-dihydropyrido[4,3-d]pyrimidin-2(1H)-one]
< 100 nM: all assays above

COc1cc(OC)c(F)c(N2Cc3cnc(N)c(-c4ccncc4)c3N(C)C2=O)c1F [Example 17, 7-amino-3-(2,6-difluoro-3,5-dimethoxyphenyl)-1-methyl-8-pyridin-4-yl-3,4-dihydropyrido[4,3-d]pyrimidin-2(1H)-one]
< 100 nM: all assays above

COc1cc(OC)c(F)c(N2Cc3cnc(N)c(/C=C/c4ccccc4)c3N(C)C2=O)c1F [Example 18, 7-amino-3-(2,6-difluoro-3,5-dimethoxyphenyl)-1-methyl-8-[(E)-2-phenylvinyl]-3,4-dihydropyrido[4,3-d]pyrimidin-2(1H)-one]
< 100 nM: all assays above

COc1cc(OC)c(F)c(N2Cc3cnc(N)c(CCc4ccccc4)c3N(C)C2=O)c1F [Example 19, 7-amino-3-(2,6-difluoro-3,5-dimethoxyphenyl)-1-methyl-8-phenylethyl-3,4-dihydropyrido-[4,3-d]pyrimidin-2(1H)-one]
< 100 nM: all assays above

COc1cc(OC)c(F)c(N2Cc3cnc(N)c(Cc4ccccc4)c3N(C)C2=O)c1F [Example 20, 7-amino-8-benzyl-3-(2,6-difluoro-3,5-dimethoxyphenyl)-1-methyl-3,4-dihydropyrido[4,3-d]pyrimidin-2(1H)-one]
< 100 nM: all assays above

COc1cc(OC)c(F)c(N2Cc3cnc(N)c(C4=CCOCC4)c3N(C)C2=O)c1F [Example 21, 7-amino-3-(2,6-difluoro-3,5-dimethoxyphenyl)-8-(3,6-dihydro-2H-pyran-4-yl)-1-methyl-3,4-dihydropyrido[4,3-d]pyrimidin-2(1H)-one]
< 100 nM: all assays above

COc1cc(OC)c(F)c(N2Cc3cnc(N)cc3C(C)(C)C2=O)c1F [Example 22, 6-amino-2-(2,6-difluoro-3,5-dimethoxyphenyl)-4,4-dimethyl-1,2-dihydro-2,7-naphthyridin-3(4H)-one]
< 100 nM: all assays above
